In assay [1] the test system is antibodies in sera from SARS patients (sera 1a, 1b, 2, 6, 37, 62, London, SARS-yellow, SARS-green). The assay is classed as binding, human. Also on record: Binding of serum 6 to linear peptides of protein X1 of SARS-CoV Urbani / Binding of serum 37 to linear peptides of protein X1 of SARS-CoV Urbani / Binding of serum 6 to looped/cyclic peptide (PEPSCAN-ELISA) / Binding of serum 37 to looped/cyclic peptide (PEPSCAN-ELISA) / Binding of serum 37 to looped/cyclic peptides of protein X1 of SARS-CoV Urbani / Binding of serum 6 to linear peptides of protein X2 / Binding of serum 37 to linear peptides of protein X2 / Binding of serum 37 to looped/cyclic peptides of protein X2 of SARS-CoV Urbani / Binding of serum 6 to linear peptides of protein M of SARS-CoV Urbani / Binding of serum 37 to linear peptides of protein M of SARS-CoV Urbani / Binding of serum 6 to looped/cyclic peptides of protein M of SARS-CoV Urbani / Binding of serum 37 to looped/cyclic peptides of protein M of SARS-CoV Urbani / Binding of serum 6 to linear peptides of protein X3 of SARS-CoV Urbani / Binding of serum 37 to linear peptides of protein X3 of SARS-CoV Urbani / Binding of serum 37 to looped/cyclic peptides of protein X3 of SARS-CoV Urbani / Binding of serum 6 to linear peptides of protein X4 of SARS-CoV Urbani / Binding of serum 37 to linear peptides of protein X4 of SARS-CoV Urbani / Binding of serum 37 to looped/cyclic peptides of protein X4 of SARS-CoV Urbani / Binding of serum 6 to linear peptides of protein X5 of SARS-CoV Urbani / Binding of serum 37 to linear peptides of protein X5 of SARS-CoV Urbani / Binding of serum 37 to looped/cyclic peptides of protein X5 of SARS-CoV Urbani / Binding of serum 6 to linear peptides of protein N of SARS-CoV Urbani / Binding of serum 37 to linear peptides of protein N of SARS-CoV Urbani / Binding of serum 6 to linear peptide (PEPSCAN-ELISA) / Binding of serum 1a to looped/cyclic peptides of protein N of SARS-CoV Urbani / Binding of serum 1b to looped/cyclic peptides of protein N of SARS-CoV Urbani / Binding of serum 2 to looped/cyclic peptides of protein N of SARS-CoV Urbani / Binding of serum 6 to looped/cyclic peptides of protein N of SARS-CoV Urbani / Binding of serum 37 to looped/cyclic peptides of protein N of SARS-CoV Urbani / Binding of serum 62 to looped/cyclic peptides of protein N of SARS-CoV Urbani / Binding of serum London to looped/cyclic peptides of protein N of SARS-CoV Urbani / Binding of serum SARS-green to looped/cyclic peptides of protein N of SARS-CoV Urbani: unit not given here.

Assay [2] has as its system control sera (pooled serum of ten healthy LUMC hospital workers; commercial negative donor pooled serum from the Dutch bloodbank). It is filed as binding, human. Set-up: Binding of Control serum LUMC to linear peptides / Binding of Control serum Blood-bank to linear peptides / Binding of Control serum LUMC to looped peptides / Binding of Control Serum Blood-Bank to Looped peptides / Binding of Control serum LUMC to linear peptides of the protein M of SARS-CoV Urbani / Binding of Control serum Blood-bank to linear peptides of the protein M of SARS-CoV Urbani / Binding of Control serum LUMC to looped peptides of the protein M of SARS-CoV Urbani / Binding of Control Serum Blood-Bank to Looped peptides of the protein M of SARS-CoV Urbani: unit not given here.

In assay [3] the test system is rabbit serum obtained by immunizing a rabbit with the SARS-CoV strain Frankfurt 1. The assay is classed as binding. Also on record: Binding of a rabbit serum to linear peptides / Binding of a rabbit serum to looped peptides / Rabbit serum linear peptides / Rabbit serum looped peptides / Binding of a rabbit serum to linear peptides of protein N of SARS-CoV Urbani (Rabbit serum linear peptides) / Binding of a rabbit serum to looped/cyclic peptides of protein N of SARS-CoV Urbani (Rabbit serum looped peptides): unit not given here.

As for QWIQFMMSRRRLLAC, in assay [1], the “Binding of serum 1a to linear peptides of protein X2” value is recorded as 0.7, the “Binding of serum 1a to looped/cyclic peptides of protein X2 of SARS-CoV Urbani” value was found to be 0.5, the “Binding of serum 1b to linear peptides of protein X2” value amounted to 0.5 and the “Binding of serum 1b to looped/cyclic peptides of protein X2 of SARS-CoV Urbani” value came to 0.4. Besides, in assay [1], the “Binding of serum 2 to linear peptides of protein X2” value was 0.5, the “Binding of serum 2 to looped/cyclic peptides of protein X2 of SARS-CoV Urbani” value was 0.3, the “Binding of serum 6 to linear peptides of protein X2” value amounted to 0.7 and the “Binding of serum 6 to looped/cyclic peptides of protein X2 of SARS-CoV Urbani” value came out at 0.3. Also, in assay [1], the “Binding of serum 37 to linear peptides of protein X2” value was found to be 0.6, the “Binding of serum 37 to looped/cyclic peptides of protein X2 of SARS-CoV Urbani” value is on record as 0.5, the “Binding of serum 62 to linear peptides of protein X2” value was found to be 0.6 and the “Binding of serum 62 to looped/cyclic peptides of protein X2 of SARS-CoV Urbani” value is 0.5. Moreover, in assay [1], the “Binding of serum London to linear peptides of protein X2” value turned out to be 0.5, the “Binding of serum London to looped/cyclic peptides of protein X2 of SARS-CoV Urbani” value came out at 0.2, the “Binding of serum SARS-green to linear peptides of protein X2” value is 0.5 and the “Binding of serum SARS-green to looped/cyclic peptides of protein X2 of SARS-CoV Urbani” value is reported as 0.4. Besides, in assay [1], the “Binding of serum SARS-yellow to linear peptides of protein X2” value is 0.6 and the “Binding of serum SARS-yellow to looped/cyclic peptides of protein X2 of SARS-CoV Urbani” value worked out at 0.4. Also, in assay [2], the “Binding of Control Serum Blood-Bank to Looped peptides” value is 0.3, the “Binding of Control serum Blood-bank to linear peptides” value came out at 0.8, the “Binding of Control serum LUMC to linear peptides” value is 0.5 and the “Binding of Control serum LUMC to looped peptides” value stood at 0.4. Also, in assay [3], the “Binding of a rabbit serum to linear peptides” value is reported as 1.0 and the “Binding of a rabbit serum to looped peptides” value stood at 2.0.

Regarding QWNLVIGFLFLAWIM, in assay [1], the “Binding of serum 1a to linear peptides of protein M of SARS-CoV Urbani” value was determined as 0.7, the “Binding of serum 1a to looped/cyclic peptides of protein M of SARS-CoV Urbani” value is recorded as 0.7, the “Binding of serum 1b to linear peptides of protein M of SARS-CoV Urbani” value came to 0.4 and the “Binding of serum 1b to looped/cyclic peptides of protein M of SARS-CoV Urbani” value was 0.6. Further, in assay [1], the “Binding of serum 2 to linear peptides of protein M of SARS-CoV Urbani” value is listed as 0.6, the “Binding of serum 2 to looped/cyclic peptides of protein M of SARS-CoV Urbani” value came out at 0.6, the “Binding of serum 6 to linear peptides of protein M of SARS-CoV Urbani” value is reported as 0.4 and the “Binding of serum 6 to looped/cyclic peptides of protein M of SARS-CoV Urbani” value amounted to 0.6. Besides, in assay [1], the “Binding of serum 37 to linear peptides of protein M of SARS-CoV Urbani” value was 0.7, the “Binding of serum 37 to looped/cyclic peptides of protein M of SARS-CoV Urbani” value is 0.5, the “Binding of serum 62 to linear peptides of protein M of SARS-CoV Urbani” value was found to be 0.8 and the “Binding of serum 62 to looped/cyclic peptides of protein M of SARS-CoV Urbani” value was found to be 0.7. Further, in assay [1], the “Binding of serum London to linear peptides of protein M of SARS-CoV Urbani” value is reported as 0.3, the “Binding of serum London to looped/cyclic peptides of protein M of SARS-CoV Urbani” value was 0.2, the “Binding of serum SARS-green to linear peptides of protein M of SARS-CoV Urbani” value is 0.2 and the “Binding of serum SARS-green to looped/cyclic peptides of protein M of SARS-CoV Urbani” value amounted to 0.3. For the same sequence, in assay [1], the “Binding of serum SARS-yellow to linear peptides of protein M of SARS-CoV Urbani” value was determined as 0.1 and the “Binding of serum SARS-yellow to looped/cyclic peptides of protein M of SARS-CoV Urbani” value is 0.8. In assay [2], the “Binding of Control Serum Blood-Bank to Looped peptides of the protein M of SARS-CoV Urbani” value is 0.6, the “Binding of Control serum Blood-bank to linear peptides of the protein M of SARS-CoV Urbani” value worked out at 0.7, the “Binding of Control serum LUMC to linear peptides of the protein M of SARS-CoV Urbani” value was 0.3 and the “Binding of Control serum LUMC to looped peptides of the protein M of SARS-CoV Urbani” value worked out at 0.6. In assay [3], the “Rabbit serum linear peptides” value was found to be 0.3 and the “Rabbit serum looped peptides” value was found to be 0.3.

Values taken from US20070128217A1 (priority 2003, published 2007).
